The text below walks through data of ChEMBL document CHEMBL1909046, “DrugMatrix in vitro pharmacology data”.

One assay addresses Mu-type opioid receptor (Homo sapiens, UniProt P35372). Kind of assay: DRUGMATRIX: Opiate mu (OP3, MOP) radioligand binding (ligand: [3H] Diprenorphine). The assay is classed as cell membranes, CHO-K1, Membrane. Conditions: cho-k1; Not Active = under 50% inhibition at 10 µM.
Assay [1] can be described thus: DRUGMATRIX: Potassium Channel [KATP] radioligand binding (ligand: [3H] Glyburide). The following applies: hit-t15; Not Active = under 50% inhibition at 10 µM. The assay is classed as cell membranes, Membrane.
Assay [2] deals with Tyrosine-protein kinase Fyn (Homo sapiens, UniProt P06241). Kind of assay: biochemical. The assay is classed as cell-based, Insect cells. Conditions: insect cells.
Tyrosine-protein kinase Fyn, sequence (P06241 whole entry): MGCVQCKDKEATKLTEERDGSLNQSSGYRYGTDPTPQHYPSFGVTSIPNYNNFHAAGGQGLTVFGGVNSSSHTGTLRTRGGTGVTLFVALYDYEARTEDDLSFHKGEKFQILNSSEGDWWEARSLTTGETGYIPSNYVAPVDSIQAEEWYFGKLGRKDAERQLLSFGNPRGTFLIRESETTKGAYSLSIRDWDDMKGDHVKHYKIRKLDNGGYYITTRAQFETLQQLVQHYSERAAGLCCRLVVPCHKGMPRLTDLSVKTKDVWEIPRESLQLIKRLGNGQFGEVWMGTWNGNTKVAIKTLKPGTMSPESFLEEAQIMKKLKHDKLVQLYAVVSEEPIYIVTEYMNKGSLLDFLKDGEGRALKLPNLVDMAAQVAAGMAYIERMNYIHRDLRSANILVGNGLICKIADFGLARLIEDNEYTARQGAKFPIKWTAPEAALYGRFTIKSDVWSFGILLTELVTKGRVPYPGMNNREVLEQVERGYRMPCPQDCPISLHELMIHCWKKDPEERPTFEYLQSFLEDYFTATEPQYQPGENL
Assay [3] in a line: DRUGMATRIX: Atrial Natriuretic Factor (ANF) radioligand binding (ligand: [125I] ANF (rat)). The assay is classed as cell membranes, Cavia porcellus, Dunkin-Hartley, Adrenal gland, Membrane. Conditions: Not Active = under 50% inhibition at 10 µM.
In a further assay the target is Insulin receptor (Rattus norvegicus, UniProt P15127). The assay is classed as cell membranes, Wistar, Liver, Membrane. Also: in other assays of this panel Not Active means under 50% inhibition at 10 µM.
Insulin receptor, sequence (P15127 27-759 limits assumed): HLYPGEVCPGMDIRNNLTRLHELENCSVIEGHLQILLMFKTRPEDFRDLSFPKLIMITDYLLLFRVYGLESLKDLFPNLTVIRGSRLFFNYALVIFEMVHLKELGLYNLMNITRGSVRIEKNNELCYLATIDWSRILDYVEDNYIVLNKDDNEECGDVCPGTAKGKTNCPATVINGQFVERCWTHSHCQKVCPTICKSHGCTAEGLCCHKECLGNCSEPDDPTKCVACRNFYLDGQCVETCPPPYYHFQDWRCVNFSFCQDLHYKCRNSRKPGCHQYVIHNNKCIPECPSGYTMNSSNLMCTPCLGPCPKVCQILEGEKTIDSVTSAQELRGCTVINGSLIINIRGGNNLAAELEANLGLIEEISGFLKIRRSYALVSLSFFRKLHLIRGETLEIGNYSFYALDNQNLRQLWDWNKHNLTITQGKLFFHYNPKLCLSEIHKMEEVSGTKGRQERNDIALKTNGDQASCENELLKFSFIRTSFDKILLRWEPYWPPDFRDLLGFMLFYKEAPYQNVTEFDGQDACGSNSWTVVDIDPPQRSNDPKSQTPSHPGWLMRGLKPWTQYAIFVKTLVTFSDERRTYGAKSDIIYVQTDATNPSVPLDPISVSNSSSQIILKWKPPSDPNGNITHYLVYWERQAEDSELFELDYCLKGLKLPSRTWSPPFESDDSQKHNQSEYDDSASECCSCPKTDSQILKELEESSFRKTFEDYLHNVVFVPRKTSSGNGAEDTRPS
Insulin receptor, sequence (P15127 764-1383 limits assumed): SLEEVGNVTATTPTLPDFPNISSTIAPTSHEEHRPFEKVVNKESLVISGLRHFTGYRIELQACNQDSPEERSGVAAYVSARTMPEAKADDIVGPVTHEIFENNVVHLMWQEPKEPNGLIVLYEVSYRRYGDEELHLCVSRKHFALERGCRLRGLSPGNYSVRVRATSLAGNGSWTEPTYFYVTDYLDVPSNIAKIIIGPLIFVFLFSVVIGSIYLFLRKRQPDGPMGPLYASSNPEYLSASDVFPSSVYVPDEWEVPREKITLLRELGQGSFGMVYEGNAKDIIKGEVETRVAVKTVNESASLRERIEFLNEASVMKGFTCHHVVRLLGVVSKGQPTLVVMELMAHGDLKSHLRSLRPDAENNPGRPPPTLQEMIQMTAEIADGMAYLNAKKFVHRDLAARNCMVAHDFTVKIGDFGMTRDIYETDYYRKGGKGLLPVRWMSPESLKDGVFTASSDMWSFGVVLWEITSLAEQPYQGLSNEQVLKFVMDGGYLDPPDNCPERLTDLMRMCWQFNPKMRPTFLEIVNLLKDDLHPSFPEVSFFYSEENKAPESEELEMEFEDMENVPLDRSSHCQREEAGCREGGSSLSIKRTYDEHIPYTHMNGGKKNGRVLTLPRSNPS
Assay [4] concerns the target T1, Alpha-1D adrenergic receptor (Homo sapiens, UniProt P25100). Also: in other assays of this panel Not Active means under 50% inhibition at 10 µM.
T1 sequence (P25100 whole entry): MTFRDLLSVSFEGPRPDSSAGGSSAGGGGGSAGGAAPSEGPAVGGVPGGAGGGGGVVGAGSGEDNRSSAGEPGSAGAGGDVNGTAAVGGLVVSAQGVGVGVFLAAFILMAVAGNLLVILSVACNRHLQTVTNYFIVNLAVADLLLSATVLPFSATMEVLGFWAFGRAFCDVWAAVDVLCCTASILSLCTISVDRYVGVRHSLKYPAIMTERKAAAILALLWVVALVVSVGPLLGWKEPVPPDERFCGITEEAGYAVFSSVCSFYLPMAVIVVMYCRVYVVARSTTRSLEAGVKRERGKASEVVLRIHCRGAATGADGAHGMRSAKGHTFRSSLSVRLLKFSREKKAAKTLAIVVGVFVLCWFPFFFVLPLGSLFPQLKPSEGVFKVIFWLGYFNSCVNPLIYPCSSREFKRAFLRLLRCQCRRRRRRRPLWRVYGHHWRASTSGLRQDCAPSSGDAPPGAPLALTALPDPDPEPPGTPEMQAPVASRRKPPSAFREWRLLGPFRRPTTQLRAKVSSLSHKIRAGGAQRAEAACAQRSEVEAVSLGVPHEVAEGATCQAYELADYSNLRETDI
The assay is classed as cell membranes, HEK293, Membrane.

A further assay deals with D(1A) dopamine receptor (Homo sapiens, UniProt P21728). Kind of assay: DRUGMATRIX: Dopamine D1 radioligand binding (ligand: [3H] SCH-23390). The assay is classed as cell membranes, CHO, Membrane. Conditions: cho; Not Active = under 50% inhibition at 10 µM.
D(1A) dopamine receptor, sequence (P21728 whole entry): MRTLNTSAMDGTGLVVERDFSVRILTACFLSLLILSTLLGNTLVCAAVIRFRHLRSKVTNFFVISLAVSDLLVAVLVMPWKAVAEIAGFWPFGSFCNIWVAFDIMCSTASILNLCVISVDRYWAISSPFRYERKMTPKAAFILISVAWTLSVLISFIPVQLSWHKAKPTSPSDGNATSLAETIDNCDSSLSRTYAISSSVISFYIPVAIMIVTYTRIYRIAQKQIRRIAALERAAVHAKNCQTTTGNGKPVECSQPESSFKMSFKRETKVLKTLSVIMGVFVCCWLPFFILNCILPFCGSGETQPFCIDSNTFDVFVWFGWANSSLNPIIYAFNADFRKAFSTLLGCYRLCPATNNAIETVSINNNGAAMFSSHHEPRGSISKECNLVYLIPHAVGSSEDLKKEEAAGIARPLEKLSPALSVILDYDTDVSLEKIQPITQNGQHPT

Structures are written as SMILES.

Mu-type opioid receptor, sequence (P35372 whole entry): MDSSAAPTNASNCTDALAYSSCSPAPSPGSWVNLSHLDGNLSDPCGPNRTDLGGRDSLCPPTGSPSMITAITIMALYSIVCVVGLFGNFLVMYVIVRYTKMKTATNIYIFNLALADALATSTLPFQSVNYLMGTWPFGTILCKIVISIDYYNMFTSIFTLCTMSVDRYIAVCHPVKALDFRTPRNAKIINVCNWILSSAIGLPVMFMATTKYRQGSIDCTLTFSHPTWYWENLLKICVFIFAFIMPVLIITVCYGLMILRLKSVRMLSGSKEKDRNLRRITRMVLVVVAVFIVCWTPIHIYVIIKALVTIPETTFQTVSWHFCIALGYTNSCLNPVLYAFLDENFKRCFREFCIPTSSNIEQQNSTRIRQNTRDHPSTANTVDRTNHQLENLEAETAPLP

Usually IC50 stands for the point on the concentration scale where inhibition reaches its midpoint. What is called Ki is a dissociation constant, usually derived from enzyme kinetics or from competition with a known ligand. For the molecule `C[C@@H]1C[C@H]2[C@@H]3CCC4=CC(=O)C=C[C@]4(C)[C@@]3(F)[C@@H](O)C[C@]2(C)[C@H]1C(=O)CO` [DESOXIMETASONE], the IC50 entry (on Mu-type opioid receptor; in assay [1]; in assay [2]; in assay [3]; against Insulin receptor; in assay [4] (hek293)) was “Not Active” in each case. In addition, on D(1A) dopamine receptor, the 50% inhibitory concentration (IC50) entry is reported as “Not Active”. The Ki result in assay [1] and in assay [3] was “Not Active” each time.
`C[C@@H]1C[C@H]2[C@@H]3CCC4=CC(=O)C=C[C@]4(C)[C@@]3(F)[C@@H](O)C[C@]2(C)[C@@]1(O)C(=O)CO` [DEXAMETHASONE]: the IC50 entry (on Mu-type opioid receptor; in assay [1]; in assay [2]; in assay [3]; at Insulin receptor; in assay [4] (hek293)) was “Not Active” each time. In addition, the concentration for half-maximal inhibition (IC50) entry at D(1A) dopamine receptor is on record as “Not Active”. Also, the Ki entry in assay [1] and in assay [3] was “Not Active” in each case.
For `CN(C)CC[C@@H](c1ccc(Cl)cc1)c1ccccn1` [DEXCHLORPHENIRAMINE], the half-maximal inhibitory concentration (IC50) result at Mu-type opioid receptor is “Not Active”; in assay [1], “Not Active”; in assay [2], “Not Active”; in assay [3] it was “Not Active”; against Insulin receptor, “Not Active”; in assay [4] (read-out: IC50), 33.7 µM. Also, the IC50 result on D(1A) dopamine receptor is recorded as “Not Active”. The Ki result in assay [1] is “Not Active”; in assay [3], “Not Active”; in assay [4] (read-out: Ki), 16.6 µM.
With `C[C@@H]1CC[C@@]2(OC1)O[C@H]1[C@@H](O)[C@H]3[C@@H]4CC[C@H]5C[C@@H](O[C@@H]6O[C@H](CO)[C@H](O[C@@H]7O[C@H](CO)C(O)[C@H](O[C@@H]8OC[C@@H](O)[C@H](O)[C@H]8O)[C@H]7O[C@@H]7O[C@H](CO)[C@H](O)[C@H](O[C@@H]8O[C@H](CO)[C@@H](O)[C@H](O)[C@H]8O)[C@H]7O)[C@H](O)[C@H]6O)[C@H](O)C[C@]5(C)[C@H]4CC[C@]3(C)[C@H]1[C@@H]2C` (stereo partly drawn) [DIGITONIN], the IC50 result (on Mu-type opioid receptor; in assay [1]; in assay [2]; in assay [3]; against Insulin receptor; in assay [4] (hek293)) was “Not Active” throughout. Also, the half-inhibitory concentration (IC50) entry on D(1A) dopamine receptor is “Not Active”. Further, the inhibitory constant (Ki) entry in assay [1] and in assay [3] was “Not Active” in each case.
On to `OC(CCCN1CCCCC1)(c1ccccc1)c1ccccc1` [DIPHENIDOL], for which the IC50 result (at Mu-type opioid receptor; in assay [1]; in assay [2]; in assay [3]; at Insulin receptor; in assay [4] (hek293)) was “Not Active” in each case. In addition, at D(1A) dopamine receptor, the half-maximal inhibitory concentration (IC50) entry was “Not Active”. Besides, the Ki entry in assay [1] and in assay [3] was “Not Active” throughout.
Turning to `C[C@H]1O[C@@H](n2cc(F)c(=O)[nH]c2=O)[C@H](O)[C@@H]1O` [DOXIFLURIDINE], the IC50 entry (at Mu-type opioid receptor; in assay [1]; in assay [2]; in assay [3]; against Insulin receptor; in assay [4] (hek293)) was “Not Active” each time. The concentration for half-maximal inhibition (IC50) entry at D(1A) dopamine receptor is reported as “Not Active”. The Ki result in assay [1] and in assay [3] was “Not Active” throughout.
Take `Cn1c(=O)c2c(ncn2CC(O)CO)n(C)c1=O` (stereo not drawn) [DYPHYLLINE]: the IC50 result (at Mu-type opioid receptor; in assay [1]; in assay [2]; in assay [3]; on Insulin receptor; in assay [4] (hek293)) was “Not Active” throughout. The IC50 entry on D(1A) dopamine receptor is “Not Active”. The Ki entry in assay [1] and in assay [3] was “Not Active” throughout.
Turning to `CC[C@H]1CN2CCc3cc(OC)c(OC)cc3[C@@H]2C[C@@H]1C[C@H]1NCCc2cc(OC)c(OC)cc21` [EMETINE], the IC50 result (on Mu-type opioid receptor; in assay [1]; in assay [2]; in assay [3]; on Insulin receptor; in assay [4] (hek293)) was “Not Active” throughout. The IC50 entry on D(1A) dopamine receptor is “Not Active”. Further, the Ki result in assay [1] and in assay [3] was “Not Active” each time.
Consider `COC(=O)CCc1ccc(OCC(O)CNC(C)C)cc1` (stereo not drawn) [ESMOLOL], for which the IC50 entry (on Mu-type opioid receptor; in assay [1]; in assay [2]; in assay [3]; at Insulin receptor; in assay [4] (hek293)) was “Not Active” each time. The IC50 result at D(1A) dopamine receptor is on record as “Not Active”. The Ki result in assay [1] and in assay [3] was “Not Active” in each case.
For the molecule `CCC1(C)CC(=O)NC1=O` (stereo not drawn) [ETHOSUXIMIDE], the IC50 entry (on Mu-type opioid receptor; in assay [1]; in assay [2]; in assay [3]; against Insulin receptor; in assay [4] (hek293)) was “Not Active” throughout. Further, at D(1A) dopamine receptor, the IC50 entry is “Not Active”. The Ki entry in assay [1] and in assay [3] was “Not Active” in each case.
For the molecule `C#C[C@]1(OC(C)=O)CC[C@H]2[C@@H]3CCC4=C[C@@H](OC(C)=O)CC[C@@H]4[C@H]3CC[C@@]21C` [ETHYNODIOL DIACETATE], the IC50 entry (on Mu-type opioid receptor; in assay [1]; in assay [2]; in assay [3]; at Insulin receptor; in assay [4] (hek293)) was “Not Active” throughout. In addition, the concentration for half-maximal inhibition (IC50) entry at D(1A) dopamine receptor is given as “Not Active”. The Ki entry in assay [1] and in assay [3] was “Not Active” throughout.
Turning to `COc1cc([C@@H]2c3cc4c(cc3[C@@H](O[C@@H]3O[C@@H]5CO[C@@H](C)O[C@H]5[C@H](O)[C@H]3O)[C@H]3COC(=O)[C@H]23)OCO4)cc(OC)c1O` [ETOPOSIDE], the IC50 entry (on Mu-type opioid receptor; in assay [1]; in assay [2]; in assay [3]; on Insulin receptor; in assay [4] (hek293)) was “Not Active” each time. In addition, the IC50 entry on D(1A) dopamine receptor is “Not Active”. Besides, the Ki entry in assay [1] and in assay [3] was “Not Active” in each case.
Take `C=CCc1ccc(O)c(OC)c1` [EUGENOL]: the IC50 result (on Mu-type opioid receptor; in assay [1]; in assay [2]; in assay [3]; against Insulin receptor; in assay [4] (hek293)) was “Not Active” in each case. Also, the IC50 result on D(1A) dopamine receptor is listed as “Not Active”. Besides, the Ki entry in assay [1] and in assay [3] was “Not Active” throughout.
Take `CC(C(=O)O)c1cccc(Oc2ccccc2)c1` (stereo not drawn) [FENOPROFEN]: the IC50 result (at Mu-type opioid receptor; in assay [1]; in assay [2]; in assay [3]; against Insulin receptor; in assay [4] (hek293)) was “Not Active” each time. In addition, the half-inhibitory concentration (IC50) entry on D(1A) dopamine receptor was “Not Active”. For the same molecule, the Ki entry in assay [1] and in assay [3] was “Not Active” in each case.
Regarding `CC(C)(C)NC(=O)[C@H]1CC[C@H]2[C@@H]3CC[C@H]4NC(=O)C=C[C@]4(C)[C@H]3CC[C@]12C` [FINASTERIDE], the IC50 result (on Mu-type opioid receptor; in assay [1]; in assay [2]; in assay [3]; against Insulin receptor; in assay [4] (hek293)) was “Not Active” throughout. The IC50 result on D(1A) dopamine receptor was “Not Active”. Moreover, the Ki result in assay [1] and in assay [3] was “Not Active” in each case.
With `COc1ccc2c3c1O[C@H]1C[C@@H](O)C=C[C@@]31CCN(C)C2` [GALANTAMINE], the IC50 entry (at Mu-type opioid receptor; in assay [1]; in assay [2]; in assay [3]; against Insulin receptor; in assay [4] (hek293)) was “Not Active” each time. The IC50 entry at D(1A) dopamine receptor is “Not Active”. Moreover, the Ki entry in assay [1] and in assay [3] was “Not Active” throughout.
As to `Nc1ccn([C@@H]2O[C@H](CO)[C@@H](O)C2(F)F)c(=O)n1` [GEMCITABINE], the IC50 result (on Mu-type opioid receptor; in assay [1]; in assay [2]; in assay [3]; at Insulin receptor; in assay [4] (hek293)) was “Not Active” each time. For the same molecule, the IC50 result on D(1A) dopamine receptor was “Not Active”. Further, the Ki entry in assay [1] and in assay [3] was “Not Active” throughout.
As for `CC(C)=CCC/C(C)=C/CO` [GERANIOL], the half-inhibitory concentration (IC50) result (at Mu-type opioid receptor; in assay [1]; in assay [2]; in assay [3]; on Insulin receptor; in assay [4] (hek293)) was “Not Active” each time. In addition, the IC50 entry at D(1A) dopamine receptor is “Not Active”. Also, the Ki result in assay [1] and in assay [3] was “Not Active” each time.
